This note sets out measurements from patent publication US20250152574A1 (BIOGEN MA INC., priority 2022, published 2025).

The pIC50 is the negative decadic logarithm of the IC50, by convention in mol/L.

pIC50: −log10 of the molar value.

T1 sequence (Q15125 whole entry): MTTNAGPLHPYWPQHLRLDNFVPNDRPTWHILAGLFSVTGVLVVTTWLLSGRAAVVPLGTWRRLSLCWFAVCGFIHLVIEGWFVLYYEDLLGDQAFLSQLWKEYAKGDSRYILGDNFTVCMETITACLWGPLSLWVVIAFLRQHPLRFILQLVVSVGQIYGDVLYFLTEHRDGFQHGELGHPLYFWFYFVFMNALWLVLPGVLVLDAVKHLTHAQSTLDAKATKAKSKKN

The experiment addresses T1, EBP (Homo sapiens, UniProt Q15125).
T1 construct: HEK293T cells were utilized as the source of EBP enzyme; endogenous in cells; host or cells: HEK293T
Description: EBP Functional Assay (EBP immunoaffinity LC-MS assay). The experiment is classed as biochemical. The following applies: HEK293T cells as source of EBP enzyme; substrate zymosterol-d5, 37° C. for 4 h; percent conversion to dehydrolathosterol-d5 by LC-APCI MRM MS. The method, boiled down:
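IC50 comes from a 4-parameter logistic fit of zymosterol-d5-to-product percent conversion, measured by LC-APCI MRM MS after sterol extraction. Compounds were preincubated 30 min with EBP from HEK293T cells before deuterated substrate was added for 4 h at 37° C; Tasin-1 served as reference.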
Compound `Cn1nc(C(F)(F)F)cc1S(=O)(=O)N1CCC2(CC1)CC(NC1CC3(COC3)C1)CO2` (stereo not drawn) [Example 139, 8-((1-methyl-3-(trifluoromethyl)-1H-pyrazol-5-yl)sulfonyl)-N-(2-oxaspiro[3.3]heptan-6-yl)-1-oxa-8-azaspiro[4.5]decan-3-amine] had a pIC50 of 6.60 to 7.00.

Consider `Cc1ccc(S(=O)(=O)N2CCC3(CC2)CC(NC2CCOCC2)CO3)c(Cl)c1` (stereo not drawn) [Example 51, 8-((2-Chloro-4-methylphenyl)sulfonyl)-N-(tetrahydro-2H-pyran-4-yl)-1-oxa-8-azaspiro[4.5]decan-3-amine], for which the pIC50 was more than 7.00.

In turn, `COc1ncc(C)cc1S(=O)(=O)N1CCC2(CC1)CC(N1CC3(COC3)C1)CO2` (stereo not drawn) [Example 117, 8-((2-methoxy-5-methylpyridin-3-yl)sulfonyl)-3-(2-oxa-6-azaspiro[3.3]heptan-6-yl)-1-oxa-8-azaspiro[4.5]decane] showed a pIC50 of 5.82 to 6.60.

The compound `O=S(=O)(c1ccc(OC(F)F)cc1)N1CCC2(CC[C@H](N3C[C@H]4C[C@@H]3CO4)C2)CC1` (single isomer, unassigned) [Example 86b] gave a pIC50 of more than 7.00.

`Cn1nc(C(F)(F)F)cc1S(=O)(=O)N1CCC2(CC1)CC(N1CCOCC1)CO2` (single isomer, unassigned) [Example 7, (R)- or (S)-8-((1-methyl-3-(trifluoromethyl)-1H-pyrazol-5-yl)sulfonyl)-3-morpholino-1-oxa-8-azaspiro[4.5]decane] had a negative-log IC50 (pIC50) of 5.82 to 6.60.

With `Cc1nc(OC(F)F)ccc1S(=O)(=O)N1CCC2(CC1)CC(N1CC3(COC3)C1)C2` [Example 121, 6-(7-((6-(difluoromethoxy)-2-methylpyridin-3-yl)sulfonyl)-7-azaspiro[3.5]nonan-2-yl)-2-oxa-6-azaspiro[3.3]heptane], the pIC50 was more than 7.00.

For `COc1ncc(C)cc1S(=O)(=O)N1CCC2(CCC(N3CC4(CCOC4)C3)C2)CC1` (stereo not drawn) [Example 43], the pIC50 was more than 7.00.

Consider `N#Cc1cc(F)cc(S(=O)(=O)N2CCC3(CCC(N4C[C@H]5C[C@@H]4CO5)C3)CC2)c1` (stereo partly drawn) [Example 97, 3-((2-((1R,4R)-2-oxa-5-azabicyclo[2.2.1]heptan-5-yl)-8-azaspiro[4.5]decan-8-yl)sulfonyl)-5-fluorobenzonitrile], for which the pIC50 is 6.60 to 7.00.

`COc1ncc(C)cc1S(=O)(=O)N1CCC2(CCC(NC3(C)CCOC3)C2)CC1` (stereo not drawn) [Example 42] gave a negative logarithm of the IC50 (pIC50) of more than 7.00.

With `COCCN(C)C1COC2(CCN(S(=O)(=O)c3cc(C)cnc3OC)CC2)C1` (stereo not drawn) [Example 67, 8-((2-Methoxy-5-methylpyridin-3-yl)sulfonyl)-N-(2-methoxyethyl)-N-methyl-1-oxa-8-azaspiro[4.5]decan-3-amine], the pIC50 is 5.82 to 6.60.

For `Cc1cnc(S(=O)(=O)N2CCC3(CCC(N4CCOCC4)C3)CC2)c(C)c1` (stereo not drawn) [Example 25, 4-(8-((3,5-Dimethylpyridin-2-yl)sulfonyl)-8-azaspiro[4.5]decan-2-yl)morpholine], the pIC50 was 6.60 to 7.00.

Consider `COc1ncc(Cl)cc1S(=O)(=O)N1CCC2(CC1)CC(N1CC(OC)C1)CO2` (stereo not drawn) [Example 61, 8-((5-Chloro-2-methoxypyridin-3-yl)sulfonyl)-3-(3-methoxyazetidin-1-yl)-1-oxa-8-azaspiro[4.5]decane], for which the pIC50 is 5.82 to 6.60.

`Cc1cc(S(=O)(=O)N2CCC3(CC[C@H](N4CCOCC4)C3)CC2)n(C)n1` (single isomer, unassigned) [Example 22b] gave a pIC50 of 6.60 to 7.00.

On to `O=S(=O)(c1cc2cccnc2cc1F)N1CCC2(CCC(N3CCOCC3)C2)CC1` (stereo not drawn) [Example 31, 4-(8-((7-fluoroquinolin-6-yl)sulfonyl)-8-azaspiro[4.5]decan-2-yl)morpholine], for which the pIC50 is 6.60 to 7.00.

As to `Cn1nc(C2CC2)cc1S(=O)(=O)N1CCC2(CC1)CC(N1CC3(COC3)C1)CO2` (stereo not drawn) [Example 56, 8-((3-Cyclopropyl-1-methyl-1H-pyrazol-5-yl)sulfonyl)-3-(2-oxa-6-azaspiro[3.3]heptan-6-yl)-1-oxa-8-azaspiro[4.5]decane], the pIC50 was 6.60 to 7.00.
